{"source": "paper PMC6249039", "about": "(Journal of medicinal chemistry, 2018)", "key": {"influenza": {"test_system": "influenza", "type": "cell-based"}, "HIV IN": {"target": "HIV IN (Human immunodeficiency virus type 1 group M subtype B, UniProt P04585)", "type": "biochemical", "details": "200 μM"}, "[1]": {"target": "human carbonic anhydrase II (hCAII) (Homo sapiens, UniProt P00918)", "experiment": "Cross-inhibition screen, human carbonic anhydrase II", "type": "biochemical", "details": "200 μM"}, "HDAC-6": {"target": "T1, HDAC-6 (Homo sapiens, UniProt Q9UBN7)", "T1 sequence (Q9UBN7 1-1215)": "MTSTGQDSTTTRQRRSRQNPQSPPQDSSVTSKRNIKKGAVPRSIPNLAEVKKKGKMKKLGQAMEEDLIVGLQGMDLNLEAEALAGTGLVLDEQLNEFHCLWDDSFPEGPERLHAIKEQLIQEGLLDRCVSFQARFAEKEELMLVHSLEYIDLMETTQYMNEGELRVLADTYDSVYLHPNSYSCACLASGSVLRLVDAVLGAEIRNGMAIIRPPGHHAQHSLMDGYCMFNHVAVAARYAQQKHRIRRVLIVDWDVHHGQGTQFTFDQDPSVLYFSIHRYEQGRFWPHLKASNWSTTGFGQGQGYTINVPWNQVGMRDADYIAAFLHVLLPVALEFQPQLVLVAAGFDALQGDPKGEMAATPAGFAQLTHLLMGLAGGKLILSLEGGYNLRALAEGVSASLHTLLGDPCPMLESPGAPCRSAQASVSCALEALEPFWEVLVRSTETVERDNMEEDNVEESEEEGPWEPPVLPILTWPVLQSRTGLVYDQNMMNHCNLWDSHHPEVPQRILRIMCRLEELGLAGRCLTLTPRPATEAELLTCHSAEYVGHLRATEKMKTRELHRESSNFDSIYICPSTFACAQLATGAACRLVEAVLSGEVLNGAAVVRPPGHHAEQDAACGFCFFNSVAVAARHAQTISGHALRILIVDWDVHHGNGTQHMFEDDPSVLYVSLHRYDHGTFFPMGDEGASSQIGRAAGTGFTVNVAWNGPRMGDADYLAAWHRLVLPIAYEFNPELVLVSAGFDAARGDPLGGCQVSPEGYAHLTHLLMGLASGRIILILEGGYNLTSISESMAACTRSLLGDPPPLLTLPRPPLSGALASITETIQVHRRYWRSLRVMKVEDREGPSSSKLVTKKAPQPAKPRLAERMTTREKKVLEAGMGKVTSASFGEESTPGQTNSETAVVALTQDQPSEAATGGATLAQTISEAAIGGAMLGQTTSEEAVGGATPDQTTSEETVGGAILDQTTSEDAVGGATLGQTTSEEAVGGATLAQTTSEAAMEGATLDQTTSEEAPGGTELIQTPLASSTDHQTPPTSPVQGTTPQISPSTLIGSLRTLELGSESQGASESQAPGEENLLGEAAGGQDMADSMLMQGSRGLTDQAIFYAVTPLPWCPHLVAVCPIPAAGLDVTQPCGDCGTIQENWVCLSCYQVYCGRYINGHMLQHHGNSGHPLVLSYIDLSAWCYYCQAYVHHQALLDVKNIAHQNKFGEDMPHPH", "experiment": "Cross-inhibition screen, HDAC-6", "type": "biochemical", "details": "200 μM"}, "[2]": {"details": "cited from earlier work"}}, "data": [{"smiles": "O=c1cc[nH]c(-c2nnn[nH]2)c1O", "note": "[Compound 27]", "values": [{"measurement": "Antiviral activity in cell-based assays", "setting": "influenza", "value": "little antiviral activity"}]}, {"smiles": "Cc1cc(=S)c(O)c(C(=O)O)o1", "note": "[Compound 22]", "values": [{"measurement": "Antiviral activity in cell-based assays", "setting": "influenza", "value": "little antiviral activity"}]}, {"smiles": "Cc1cc(C(=O)O)c(O)c(=O)[nH]1", "note": "[Compound 18]", "values": [{"measurement": "Antiviral activity in cell-based assays", "setting": "influenza", "value": "little antiviral activity"}]}, {"smiles": "O=c1c(O)ccccc1O", "note": "[Compound 32, α-hydroxytropolone]", "values": [{"measurement": "Antiviral activity in cell-based assays", "setting": "influenza", "value": "little antiviral activity"}]}, {"smiles": "Cc1cc(O)c(=O)c(O)cc1C(=O)O", "note": "[Compound 33, 5-Methyl-2,7-dihydroxytropolone-4-carboxylic acid]", "values": [{"measurement": "Antiviral activity in cell-based assays", "setting": "influenza", "value": "little antiviral activity"}]}, {"smiles": "Cc1cc(=O)c(O)c(C(=O)O)[nH]1", "note": "[Compound 17, 3-Hydroxy-6-methyl-4-oxo-1,4-dihydropyridine-2-carboxylic acid]", "values": [{"measurement": "Antiviral activity in cell-based assays", "setting": "influenza", "value": "little antiviral activity"}]}, {"smiles": "Cc1cc(=O)c(O)c(C(=O)O)o1", "note": "[Compound 1, 3-Hydroxy-6-methyl-4-oxo-4H-pyran-2-carboxylic acid]", "values": [{"measurement": "Percent inhibition, HIV IN 3'-processing activity", "setting": "HIV IN", "value": "no inhibition"}, {"measurement": "Percent inhibition, hCAII", "setting": "[1]", "value": "no inhibition"}, {"measurement": "Percent inhibition, HDAC-6", "setting": "HDAC-6", "value": "no inhibition"}, {"measurement": "Antiviral activity in cell-based assays", "setting": "influenza", "value": "little antiviral activity"}]}, {"smiles": "O=C(O)c1occc(=O)c1O", "note": "[Compound 3]", "values": [{"measurement": "Antiviral activity in cell-based assays", "setting": "influenza", "value": "little antiviral activity"}]}, {"smiles": "O=C(O)c1cccc(=O)n1O", "note": "[Compound 5]", "values": [{"measurement": "pKa reported", "setting": "[2]; N-hydroxy donor oxygen", "value": 7.51}]}, {"smiles": "O=C(O)c1cccc(O)c1O", "note": "[Compound 7]", "values": [{"measurement": "pKa reported, first value", "setting": "[2]; phenolic oxygen", "value": 10.30}, {"measurement": "pKa reported, second value", "setting": "[2]; phenolic oxygen", "value": 13.48}]}]}
